Oc1ccc(Cl)c2cccnc12
solubility (mole fraction)
Details | 278.15 K | 283.15 K | 288.15 K | 293.15 K | 298.15 K | 303.15 K | 308.15 K | 313.15 K | 318.15 K | 323.15 K
in 1,4-dioxane | – | – | 0.0556 | 0.064 | 0.0751 | 0.0875 | 0.102 | 0.119 | 0.14 | 0.161
in 2-ethoxyethanol | 0.0161 | 0.0194 | 0.0249 | 0.0284 | 0.0333 | 0.0398 | 0.0466 | 0.055 | 0.0646 | 0.0768
in ethanol | 0.00253 | 0.00304 | 0.00376 | 0.00468 | 0.00564 | 0.00694 | 0.00839 | 0.0101 | 0.0121 | 0.0145
in n-propyl acetate | 0.015 | 0.0178 | 0.0213 | 0.0251 | 0.0297 | 0.0355 | 0.0416 | 0.0495 | 0.0587 | 0.0696
